From US8076487B2, “Pyridone derivative and herbicide” (Kumiai Chemical Industry Co., Ltd., priority 2006, dated 2011)

How the values were obtained:
Assay type in all cases: in vivo
[1] = system: heartshape false pickerelweed (Monochoria vaginalis (Burm.f.) C.Presl); experiment: Test Example 1: herbicidal effect by soil application to paddy field; settings: paddy field soil application; active ingredient 1,000 g per 1 hectare; wettable powder added dropwise to water surface the day after sowing; examined on the 21st day after application
In short: (§1)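 Plants were sown in flooded (3 cm) paddy soil and evaluated for herbicidal effect 21 days after soil application in a greenhouse.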

[2] = system: early watergrass (Echinochloa oryzicola Vasing); experiment: as above; settings: paddy field soil application; active ingredient 1,000 g per 1 hectare; wettable powder added dropwise to water surface the day after sowing; examined on the 21st day after application
In short: as §1

[3] = system: Japanese bulrush (Scirpus juncoides Roxb.); experiment: as above; settings: paddy field soil application; active ingredient 1,000 g per 1 hectare; wettable powder added dropwise to water surface the day after sowing; examined on the 21st day after application
In short: as §1

[4] = system: slender amaranth (Amaranthus viridis L.); experiment: Test Example 2: herbicidal effect by soil application to upland field; settings: soil surface spray, upland field soil, 1,000 g active ingredient per hectare, 21st day after application
In short: (§2)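 Soil-applied wettable powder, 1,000 g a.i./ha, sprayed after sowing onto covered field soil. Effect rated on a standard scale 21 days later in a greenhouse.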

[5] = system: green foxtail (Setaria viridis (L.) P. Beauv.); experiment: as above; settings: soil surface spray, upland field soil, 1,000 g active ingredient per hectare, 21st day after application
In short: as §2

[6] = system: barnyardgrass (Echinochloa crus-galli (L.) P. Beauv. var. crus-galli); experiment: as above; settings: soil surface spray, upland field soil, 1,000 g active ingredient per hectare, 21st day after application
In short: as §2

[7] = system: velvetleaf (Abutilon theophrasti medicus); experiment: as above; settings: soil surface spray, upland field soil, 1,000 g active ingredient per hectare, 21st day after application
In short: as §2

[8] = system: slender amaranth (Amaranthus viridis L.); experiment: Test Example 3: herbicidal effect by application to upland field (foliage treatment); settings: 14th day after application; for herbicidal effect (index), Slender Amaranth: foliage treatment, plants grown two weeks, 1,000 g active ingredient per hectare
In short: (§3)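 Upland foliage test in greenhouse pots of field soil: seedlings sprayed at two weeks post-sowing with 1,000 g/ha active ingredient (wettable powder, 1,000 L water/ha). Scored 14 d after application.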

[9] = system: green foxtail (Setaria viridis (L.) P. Beauv.); experiment: as above; settings: 14th day after application; for herbicidal effect (index), Green Foxtail: foliage treatment, plants grown two weeks, 1,000 g active ingredient per hectare
In short: as §3

[10] = system: barnyardgrass (Echinochloa crus-galli (L.) P. Beauv. var. crus-galli); experiment: as above; settings: 14th day after application; for herbicidal effect (index), Barnyardgrass: foliage treatment, plants grown two weeks, 1,000 g active ingredient per hectare
In short: as §3

[11] = system: velvetleaf (Abutilon theophrasti medicus); experiment: as above; settings: 14th day after application; for herbicidal effect (index), Velvetleaf: foliage treatment, plants grown two weeks, 1,000 g active ingredient per hectare
In short: as §3

[12] = foliage treatment, 1,000 g active ingredient per 1 hectare, greenhouse

Compound	herbicidal effect, Monochoria vaginalis (Burm. f.) C. Presl [1]	herbicidal effect, Echinochloa oryzicola Vasing [2]	herbicidal effect, Scirpus juncoides Roxb. [3]	herbicidal effect (index), Slender Amaranth [4]	herbicidal effect (index), Green Foxtail [5]	herbicidal effect (index), Barnyardgrass [6]	herbicidal effect (index), Velvetleaf [7]	herbicidal effect (index), Slender Amaranth [8]	herbicidal effect (index), Green Foxtail [9]	herbicidal effect (index), Barnyardgrass [10]	herbicidal effect (index), Velvetleaf [11]	herbicidal effect, Slender Amaranth [8, 12]	herbicidal effect, Green Foxtail [9, 12]	herbicidal effect, Barnyardgrass [10, 12]	herbicidal effect, Velvetleaf [11, 12]
O=C1CCCC(O)=C1C(=O)c1ccc(C(F)(F)F)n(CSCC2CC2)c1=O [I-57]	5 (90% or more of herbicidal effect and crop phytotoxicity)	5 (90% or more of herbicidal effect and crop phytotoxicity)	5 (90% or more of herbicidal effect and crop phytotoxicity)	5 (90% or more of herbicidal effect and crop phytotoxicity)	5 (90% or more of herbicidal effect and crop phytotoxicity)	5 (90% or more of herbicidal effect and crop phytotoxicity)	5 (90% or more of herbicidal effect and crop phytotoxicity)	5 (90% or more of herbicidal effect and crop phytotoxicity)	5 (90% or more of herbicidal effect and crop phytotoxicity)	5 (90% or more of herbicidal effect and crop phytotoxicity)	5 (90% or more of herbicidal effect and crop phytotoxicity)				
Cn1ncc(C(=O)c2ccc(C(F)(F)F)n(C)c2=O)c1OC(=O)OCc1ccccc1 [IV-199]	5 (90% or more of herbicidal effect and crop phytotoxicity)	5 (90% or more of herbicidal effect and crop phytotoxicity)	5 (90% or more of herbicidal effect and crop phytotoxicity)	5 (90% or more of herbicidal effect and crop phytotoxicity)	4 (70 to less than 90% of herbicidal effect and crop phytotoxicity)	5 (90% or more of herbicidal effect and crop phytotoxicity)	5 (90% or more of herbicidal effect and crop phytotoxicity)					5 (90% or more of herbicidal effect and crop phytotoxicity)	3 (50 to less than 70% of herbicidal effect and crop phytotoxicity)	4 (70 to less than 90% of herbicidal effect and crop phytotoxicity)	5 (90% or more of herbicidal effect and crop phytotoxicity)
C=CCn1c(C(F)(F)F)ccc(C(=O)C2=C(O)CCCC2=O)c1=O [I-11]	5 (90% or more of herbicidal effect and crop phytotoxicity)	5 (90% or more of herbicidal effect and crop phytotoxicity)	5 (90% or more of herbicidal effect and crop phytotoxicity)	5 (90% or more of herbicidal effect and crop phytotoxicity)	4 (70 to less than 90% of herbicidal effect and crop phytotoxicity)	5 (90% or more of herbicidal effect and crop phytotoxicity)	5 (90% or more of herbicidal effect and crop phytotoxicity)	5 (90% or more of herbicidal effect and crop phytotoxicity)	5 (90% or more of herbicidal effect and crop phytotoxicity)	5 (90% or more of herbicidal effect and crop phytotoxicity)	5 (90% or more of herbicidal effect and crop phytotoxicity)				
CCOCCn1c(C(F)(F)F)ccc(C(=O)C2=C(O)CCCC2=O)c1=O [I-32]	5 (90% or more of herbicidal effect and crop phytotoxicity)	5 (90% or more of herbicidal effect and crop phytotoxicity)	5 (90% or more of herbicidal effect and crop phytotoxicity)	5 (90% or more of herbicidal effect and crop phytotoxicity)	5 (90% or more of herbicidal effect and crop phytotoxicity)	5 (90% or more of herbicidal effect and crop phytotoxicity)	5 (90% or more of herbicidal effect and crop phytotoxicity)	5 (90% or more of herbicidal effect and crop phytotoxicity)	5 (90% or more of herbicidal effect and crop phytotoxicity)	5 (90% or more of herbicidal effect and crop phytotoxicity)	5 (90% or more of herbicidal effect and crop phytotoxicity)				
O=C1CCCC(O)=C1C(=O)c1ccc(C(F)(F)F)n(-c2ccc(Cl)c(Cl)c2)c1=O [I-98]	5 (90% or more of herbicidal effect and crop phytotoxicity)	5 (90% or more of herbicidal effect and crop phytotoxicity)	5 (90% or more of herbicidal effect and crop phytotoxicity)	5 (90% or more of herbicidal effect and crop phytotoxicity)	5 (90% or more of herbicidal effect and crop phytotoxicity)	5 (90% or more of herbicidal effect and crop phytotoxicity)	5 (90% or more of herbicidal effect and crop phytotoxicity)	5 (90% or more of herbicidal effect and crop phytotoxicity)	5 (90% or more of herbicidal effect and crop phytotoxicity)	5 (90% or more of herbicidal effect and crop phytotoxicity)	5 (90% or more of herbicidal effect and crop phytotoxicity)				
N#Cc1cccc(-n2c(C(F)(F)F)ccc(C(=O)C3=C(O)CCCC3=O)c2=O)c1 [I-94]	5 (90% or more of herbicidal effect and crop phytotoxicity)	5 (90% or more of herbicidal effect and crop phytotoxicity)	5 (90% or more of herbicidal effect and crop phytotoxicity)	5 (90% or more of herbicidal effect and crop phytotoxicity)	5 (90% or more of herbicidal effect and crop phytotoxicity)	5 (90% or more of herbicidal effect and crop phytotoxicity)	5 (90% or more of herbicidal effect and crop phytotoxicity)	5 (90% or more of herbicidal effect and crop phytotoxicity)	5 (90% or more of herbicidal effect and crop phytotoxicity)	5 (90% or more of herbicidal effect and crop phytotoxicity)	5 (90% or more of herbicidal effect and crop phytotoxicity)				
O=C1CCCC(O)=C1C(=O)c1ccc(C(F)(F)F)n(-c2cccc(C(F)(F)F)c2)c1=O [I-85]	5 (90% or more of herbicidal effect and crop phytotoxicity)	5 (90% or more of herbicidal effect and crop phytotoxicity)	5 (90% or more of herbicidal effect and crop phytotoxicity)	5 (90% or more of herbicidal effect and crop phytotoxicity)	5 (90% or more of herbicidal effect and crop phytotoxicity)	5 (90% or more of herbicidal effect and crop phytotoxicity)	5 (90% or more of herbicidal effect and crop phytotoxicity)	5 (90% or more of herbicidal effect and crop phytotoxicity)	5 (90% or more of herbicidal effect and crop phytotoxicity)	5 (90% or more of herbicidal effect and crop phytotoxicity)	5 (90% or more of herbicidal effect and crop phytotoxicity)				
